Reference: US4965283A, “Amino acid esters, process for the preparation thereof and use thereof” (Dr. Willmar Schwabe GmbH & Co., priority 1987, dated 1990)
Structures can show the parent of a compound that is named as a salt. Where two headings read alike, the source gives them in different places.

Tested on: maximum electroshock spasm (MES), extensor spasm in mice
Assay: MES test (maximum electroshock; inhibition of extensor spasm)
Assay type: in vivo, male mice (NMRI)
Conditions: oral; for responders at 50 mg/kg / ED50 / responders at 100 mg/kg / responders at 25 mg/kg: Mus musculus, po; for responders at 50 mg/kg / protective action [%] after 1 hr / protective action [%] after 3 hrs / responders at 100 mg/kg / responders at 25 mg/kg: n = 10; for ED 50 values / ED 50 values (estimated values) / ED50: MES test, 1 hour after administration; for ED 50 values (estimated values): * estimated from several tests with different dosages; for ED50: read-out: ED 50 values
Source text: For the determination of the anticonvulsive/anti-epileptic activity of the substances according to the present invention the method described by E. A. Swinyard et al., J. Pharmacol. exp. Therapeut. 106, 319-330 (1952) and by L. A. Woodbury et al., Arch. int. Pharmacodyn., 92, 97-107 (1952) was used. To male mice (NMRI) with a body weight of 20-25 g via corneal electrodes, an alternating current of 50 Hz and 50 mA is applied for 0.2 sec. (HSE-shock stimulation apparatus; type 207). The maximum electroshock spasm (MES) consists of a tonic extension of the rear extremities, the clonic twitch and loss of consciousness. The activity criterion is taken as being the inhibition of the extensor spasm by the substances according to the present invention. Before the experiments the mice had free access to feed and water. The test substances were administered orally as suspensions in 0.2% agar by stomach tubes; the control animals received adequate volumes of agar. 1 hour and 3 hours after administration the test for protective action against MES was carried out.
As percentage action the percentage proportion of those animals which in the MES test were protected 100% against the extensor spasm is given. 10 animals were used per test.
The ED 50 values were determined according to Lichtfield and Wilcoxon J. Pharmacol. exp. Therapeut. 96, 99 (1949) in each case with 4 to 5 animal groups each of 8-10 animals per dosage stage.

[1] = 1 h, 50 mg/kg, 1 hr after administration, read-out: protective action [%] after 1 hr
[2] = 3 h, 50 mg/kg, 3 hrs after administration, read-out: protective action [%] after 3 hrs
[3] = 50 mg/kg, 1 hr after administration
[4] = 50 mg/kg, 3 hrs after administration
[5] = 50 mg/kg, 3 hrs after administration, hydrochloride
[6] = 100 mg/kg, 1 hr after administration
[7] = 100 mg/kg, 3 hrs after administration
[8] = 1 h, 100 mg/kg, 1 hr after administration, read-out: protective action [%] after 1 hr
[9] = 3 h, 100 mg/kg, 3 hrs after administration, read-out: protective action [%] after 3 hrs

Question: For `COC1=CC(=O)OC1C(OC(=O)[C@@H]1CCCN1)c1ccccc1Br` (single isomer, unassigned) [127 A], which responders at 50 mg/kg [1] is on record?
Answer: 100%

Question: What about the responders at 50 mg/kg [2] of the same molecule?
Answer: 100%

Question: Which results are given for `COC1=CC(=O)OC1C(OC(=O)CNC(C)=O)c1ccccc1Cl` (single isomer, unassigned; (+)) [Example 150]?
Answer: protective action [%] after 1 hr [3]: 100%; protective action [%] after 3 hrs [4]: 100%; ED 50 values: 14.4 mg/kg

Question: With `COC1=CC(=O)O[C@H]1[C@H](OC(=O)CN)c1ccccc1Cl` (relative stereo) [Example 112, threo-5-[2-chlorophenyl-glycyloxy)methyl-4-methoxy-2(5H)-furanone hydrochloride] as the molecule, how does the “protective action [%] after 3 hrs” value [5] read?
Answer: 70%

Question: What about the “ED 50 values” (hydrochloride, 60 min) of the same molecule?
Answer: 22.2 mg/kg

Question: With `COC1=CC(=O)OC1C(OC(=O)[C@@H]1CCCN1)c1ccccc1C(F)(F)F` (single isomer, unassigned) [139 A] as the molecule, how does the “ED 50 values (estimated values)” value read?
Answer: 15 to 20 mg/kg

Question: What about the responders at 50 mg/kg [1] of the same molecule?
Answer: 100%

Question: And the responders at 50 mg/kg [2]?
Answer: 50%

Question: Which results are given for `COC1=CC(=O)O[C@H]1[C@H](OC(=O)CN)c1ccccc1Cl` (relative stereo) [Example 111, threo-5-[2-chlorophenyl-(glycyloxy)-methyl]-4-methoxy-2(5H)-furanone hydrobromide]?
Answer: responders at 50 mg/kg [1]: 100%; ED50 (1 h): 24.2 mg/kg; responders at 50 mg/kg [2]: 80%

Question: What does the source list for `Br.COC1=CC(=O)OC1C(OC(=O)CN)c1ccccc1Cl` (single isomer, unassigned; (-)) [Example 153]?
Answer: protective action [%] after 1 hr [6]: 40%; protective action [%] after 3 hrs [7]: 0%

Question: Which “ED 50 values (estimated values)” value does the source give for `COC1=CC(=O)OC1C(OC(=O)[C@H](C)N)c1ccc(Cl)cc1Cl` (stereo partly drawn) [Example 133, threo-5-[L-alanyloxy-(2,4-dichlorophenyl)-methyl]-4-methoxy-2(5H)-furanone hydrobromide] here?
Answer: 60 to 70 mg/kg

Question: And the responders at 100 mg/kg [8]?
Answer: 100%

Question: And the responders at 100 mg/kg [9]?
Answer: 100%

Question: What does the source list for `COC1=CC(=O)OC1C(OC(=O)[C@@H]1CCCN1)c1ccc(Cl)cc1Cl` (single isomer, unassigned) [135 A]?
Answer: ED 50 values (estimated values): 65 to 75 mg/kg; responders at 100 mg/kg [8]: 100%; responders at 100 mg/kg [9]: 100%

Question: For `COC1=CC(=O)OC1C(OC(=O)[C@@H]1CCC(=O)N1)c1ccccc1Cl` (single isomer, unassigned) [125 A], which responders at 50 mg/kg [1] is on record?
Answer: 100%

Question: And the responders at 50 mg/kg [2]?
Answer: 80%

Question: What does the source list for `Br.COC1=CC(=O)OC1C(OC(=O)CN)c1ccccc1Cl` (single isomer, unassigned; (+)) [Example 151, (+)-threo-5-[2-chlorophenyl-(glycyloxy)-methyl]-4-methoxy-2(5H)-furanone hydrobromide]?
Answer: protective action [%] after 1 hr [3]: 100%; protective action [%] after 3 hrs [4]: 100%; ED 50 values: 12.2 mg/kg

Question: Which results are given for `COC1=CC(=O)OC1C(OC(=O)[C@@H]1CCCN1)c1cc(Cl)ccc1Cl` (single isomer, unassigned) [137 A]?
Answer: responders at 50 mg/kg [1]: 100%; responders at 50 mg/kg [2]: 100%

Question: How did the “protective action [%] after 3 hrs” value [4] turn out when `COC1=CC(=O)OC1C(OC(=O)[C@@H](N)c1ccccc1)c1ccccc1Cl` (single isomer, unassigned) [117 A] was run?
Answer: 100%

Question: And the responders at 50 mg/kg [1]?
Answer: 100%

Question: What about the ED50 (1 h) of the same molecule?
Answer: 16 mg/kg

Question: Which results are given for `COC1=CC(=O)O[C@H]1[C@H](OC(=O)CN)c1ccc(Cl)cc1Cl` (relative stereo) [Example 130, threo-5-[2,4-dichlorophenyl-(glycyloxy)-methyl]-4-methoxy-2(5H)-furanone hydrobromide]?
Answer: ED 50 values (estimated values): 40 to 50 mg/kg; responders at 100 mg/kg [8]: 100%; responders at 100 mg/kg [9]: 100%

Question: For `COC1=CC(=O)O[C@H]1[C@H](OC(=O)CNC(C)=O)c1ccc(Cl)cc1Cl` (relative stereo) [Example 132, threo-5-[N-acetylglycyloxy-(2,4-dichlorophenyl)-methyl]-4-methoxy-2(5H)-furanone], which responders at 100 mg/kg [8] is on record?
Answer: 20%

Question: And the responders at 100 mg/kg [9]?
Answer: 50%

Question: How did the responders at 100 mg/kg [8] turn out when `COC1=CC(=O)O[C@@H]1[C@@H](OC(=O)[C@@H]1CCCN1)c1ccccc1Cl` [103 A] was run?
Answer: 100%

Question: And the ED50 (1 h)?
Answer: 10.7 mg/kg

Question: And the responders at 100 mg/kg [9]?
Answer: 100%

Question: What does the source list for `COC1=CC(=O)OC1C(OC(=O)[C@@H]1CCCN1C(=O)OCc1ccccc1)c1ccccc1C(F)(F)F` (single isomer, unassigned) [138 A]?
Answer: responders at 100 mg/kg [8]: 30%; responders at 100 mg/kg [9]: 20%

Question: Which results are given for `COC1=CC(=O)OC1C(OC(=O)[C@@H]1CCCN1)c1ccccc1F` (single isomer, unassigned) [129 A]?
Answer: protective action [%] after 1 hr [6]: 100%; protective action [%] after 3 hrs [7]: 100%; ED 50 values (estimated values): 40 to 50 mg/kg

Question: What does the source list for `COC1=CC(=O)O[C@H]1[C@H](OC(=O)[C@@H]1CCCN1)c1ccccc1Cl` [104 B]?
Answer: protective action [%] after 1 hr [6]: 60%; protective action [%] after 3 hrs [7]: 0%; ED 50 values (60 min): 105 mg/kg

Question: For `COC1=CC(=O)O[C@H]1[C@H](OC(=O)CN)c1ccccc1` (relative stereo) [Example 105, threo-5-[glycyloxy-(phenyl)-methyl]-4-methoxy-2(5H)-furanone hydrobromide], which responders at 100 mg/kg [8] is on record?
Answer: 70%

Question: What about the ED50 (1 h) of the same molecule?
Answer: 87.5 mg/kg

Question: What about the responders at 100 mg/kg [9] of the same molecule?
Answer: 0%

Question: Which responders at 100 mg/kg [8] does the source give for `COC1=CC(=O)OC1C(OC(=O)[C@@H]1CCCN1)c1ccccc1C(F)(F)F` (some centres unmarked) [139 B] here?
Answer: 40%

Question: What about the responders at 100 mg/kg [9] of the same molecule?
Answer: 10%

Question: How did the “ED 50 values (estimated values)” value turn out when `COC1=CC(=O)O[C@H]1[C@H](OC(=O)CCCN)c1ccccc1Cl` (relative stereo) [Example 113, threo-5-[4-aminobutanoyloxy-(2-chlorophenyl)-methyl]-4-methoxy-2(5H)-furanone hydrobromide] was run?
Answer: 25 to 35 mg/kg

Question: What about the responders at 50 mg/kg [1] of the same molecule?
Answer: 100%

Question: And the responders at 50 mg/kg [2]?
Answer: 50%

Question: `COC1=CC(=O)O[C@H]1[C@H](OC(=O)C(C)(C)N)c1ccccc1Cl` (relative stereo) [Example 155, threo-5-[2-chlorophenyl-(2-methylalanyloxy)-methyl]-4-methoxy-2(5H)-furanone-hydrobromide] was tested. Which “ED 50 values (estimated values)” value did it give?
Answer: 20 to 30 mg/kg

Question: And the responders at 25 mg/kg (1 h, 1 hr after administration, read-out: protective action [%] after 1 hr)?
Answer: 50%

Question: What about the responders at 25 mg/kg (3 h, 3 hrs after administration, read-out: protective action [%] after 3 hrs) of the same molecule?
Answer: 10%

Question: For `COC1=CC(=O)OC1C(OC(=O)[C@@H]1CCCN1C(=O)OCc1ccccc1)c1cc(Cl)ccc1Cl` (single isomer, unassigned) [136 A], which “ED 50 values (estimated values)” value is on record?
Answer: 40 to 50 mg/kg

Question: And the responders at 50 mg/kg [1]?
Answer: 60%

Question: And the responders at 50 mg/kg [2]?
Answer: 50%

Question: Which ED50 (1 h) does the source give for `COC1=CC(=O)O[C@H]1[C@H](OC(=O)CN)c1ccc(Cl)cc1Cl` (relative stereo) [Example 131, threo-5-[2,4-dichlorophenyl-(glycyloxy)-methyl]-4-methoxy-2(5H)-furanone hydrochloride] here?
Answer: 54.5 mg/kg

Question: What does the source list for `COC1=CC(=O)OC1C(OC(=O)[C@@H](N)c1ccccc1)c1ccccc1Cl` (single isomer, unassigned) [117 B]?
Answer: protective action [%] after 1 hr [3]: 90%; protective action [%] after 3 hrs [4]: 0%; ED 50 values (60 min): 25.3 mg/kg

Question: For `COC1=CC(=O)OC1C(OC(=O)[C@H](Cc1ccccc1)N=C(C)C)c1ccccc1Cl` (single isomer, unassigned) [121 A], which responders at 50 mg/kg [1] is on record?
Answer: 100%

Question: And the responders at 50 mg/kg [2]?
Answer: 90%

Question: Which results are given for `COC1=CC(=O)O[C@@H]1[C@@H](OC(=O)[C@@H]1CCCN1)c1ccccc1Cl` [104 A]?
Answer: responders at 50 mg/kg [1]: 100%; responders at 50 mg/kg [2]: 100%

Question: `COC1=CC(=O)OC1C(OC(=O)CNC(=O)C(C)(C)C)c1ccccc1Cl` (single isomer, unassigned; (+)) [Example 152, (+)-threo-5-[2-chlorophenyl-(N-pivaloylglycyloxy)-methyl]-4-methoxy-2(5H)-furanone] was tested. Which “protective action [%] after 1 hr” value [3] did it give?
Answer: 100%

Question: And the “protective action [%] after 3 hrs” value [4]?
Answer: 90%

Question: What about the “ED 50 values” of the same molecule?
Answer: 16.3 mg/kg

Question: Which results are given for `COC1=CC(=O)OC1C(OC(=O)[C@@H]1CCCN1)c1ccccc1` (some centres unmarked) [110 A]?
Answer: ED 50 values (estimated values): 40 to 50 mg/kg; responders at 100 mg/kg [8]: 100%; responders at 100 mg/kg [9]: 0%

Question: `COC1=CC(=O)O[C@H]1[C@H](OC(=O)CCCN)c1ccccc1Cl` (relative stereo) [Example 114, threo-5-[4-aminobutanoyloxy-(2-chlorophenyl)-methyl]-4-methoxy-2(5H)-furanone hydrochloride] was tested. Which “protective action [%] after 3 hrs” value [5] did it give?
Answer: 30%

Question: What about the ED50 (1 h) of the same molecule?
Answer: 40 mg/kg

Question: Which “ED 50 values (estimated values)” value does the source give for `COC1=CC(=O)OC1C(OC(=O)[C@@H]1CCCN1C(C)=O)c1ccccc1Cl` (single isomer, unassigned) [107 A] here?
Answer: 10 to 15 mg/kg

Question: What about the responders at 100 mg/kg [8] of the same molecule?
Answer: 100%

Question: What about the responders at 100 mg/kg [9] of the same molecule?
Answer: 60%
